Patent EP0342003B1, “Use of 15-ketoprostaglandin E or F compounds for uterine contraction” (Kabushiki Kaisha Ueno Seiyaku Oyo Kenkyujo, priority 1988, dated 1989)

Experiments:
[1] = tested on: uterus; test: Uterine contraction of an isolated uterus section in a Magnus tube; format: cell-based; settings: Rattus norvegicus, ratio to contraction by oxytocin (1mU) taken as 100%; for activation at 1 µM: Dose 1x10^-6 M; for activation at 0.3 µM: Dose 3x10⁻⁷ M
Protocol: Test Example 1 (Uterine contraction)
An estrous rat (female, 150g) was used as test animals. The rat was sacrificed by bleeding and uterus was extirpated. A section of about 2.0cm was cut off and hung in a Magnus tube containing Tyrode solution or Beauvillain solution.
The section of uterus was held for about 5 minutes until it because stable and then contracted several times by administering oxytocin (1mU). After stable contraction was obtained, the section received test compounds. Contractions obtained by the test compounds were expressed as a ratio to the contraction by oxytocin which was taken as 100%. The results are shown in Table 1 (15-keto-PGE derivatives) and Table 2 (15-keto-PGF derivatives).

[2] = tested on: ileum; test: Intestinal contraction of an isolated ileum section in a Magnus tube (reference example); format: cell-based, Wistar rat; settings: result in words
Protocol: Test Example 3 (Intestinal contraction ... Reference example)
A section was cut off from ileum of a Wistar rat (male) and hung in a Magnus tube. The section was contracted several times by administering acetylcholine (1x10⁻⁶ g/ml) and received test compounds after giving two or more contractions of the same intensity. Contractions obtained by the test compounds were expressed as a ratio to the contraction by acetylcholine (1x10⁻⁶ g/ml) which was taken as 100%, and EC₅₀ values were calculated as a concentrations for 50% contraction.

CCCCC(F)(F)C(=O)CC[C@H]1[C@H](O)CC(=O)[C@@H]1C/C=C\CCCC(=O)OC [X-13]
activation at 1 µM ([1]; Table 1): 63%

CCCCC(F)C(=O)/C=C/[C@@H]1[C@@H](C/C=C\CCCC(=O)OC)[C@@H](O)C[C@H]1O (stereo partly drawn) [Y-11, 15-keto-16R,S-fluoro-PGF2α methyl ester]
activation at 10 µM ([1]; Table 2, Dose 1x10⁻⁵ M): 95%

CCCCCCC(F)C(=O)CC[C@@H]1[C@@H](C/C=C\CCCC(=O)OC)[C@@H](O)C[C@H]1C (stereo partly drawn) [Y-8, 13,14-dihydro-15-keto-20-ethyl-16R,S-fluoro-11-dehydroxy-11R-methyl-PGF2α methyl ester]
activation at 100 µM ([1]; Table 2, Dose 1x10⁻⁴ M): 50%

CCCCCCC(F)C(=O)CC[C@@H]1[C@@H](C/C=C\CCCC(=O)OC)[C@@H](O)C[C@H]1O (stereo partly drawn) [Y-7, 13,14-dihydro-15-keto-20-ethyl-16R,S-fluoro-PGF2α methyl ester]
activation at 10 µM ([1]; Table 2, Dose 1x10⁻⁵ M): 85%

CCCCC(F)C(=O)/C=C/[C@H]1[C@H](O)CC(=O)[C@@H]1C/C=C\CCCC(=O)OC (stereo partly shown) [X-9]
activation at 10 µM ([1]; Table 1, Dose 1x10^-5 M): 84%

CCCCC(F)(F)C(=O)CC[C@@H]1[C@@H](C/C=C\CCCC(=O)OC)[C@@H](O)C[C@H]1O [Y-3, 13,14-dihydro-15-keto-16,16-difluoro-PGF2α methyl ester]
activation at 3 µM ([1]; Table 2, Dose 3x10⁻⁶ M): 82%

CCCCC(O)C(=O)CC[C@H]1[C@H](O)CC(=O)[C@@H]1C/C=C\CCCC(=O)OCC (stereo partly shown) [X-3, 13,14-dihydro-15-keto-16R,S-hydroxy-PGE2 ethyl ester]
activation at 100 µM ([1]; Table 1, Dose 1x10^-4 M): 50%

CCCCC(F)C(=O)CC[C@@H]1[C@@H](C/C=C\CCCC(=O)O)[C@@H](O)C[C@H]1O (stereo partly drawn) [Y-1, 13,14-dihydro-15-keto-16R,S-fluoro-PGF2α]
activation at 0.3 µM ([1]; Table 2): 89%

CCCCCC(F)C(=O)CC[C@@H]1[C@@H](C/C=C\CCCC(=O)OC)[C@@H](O)C[C@H]1O (stereo partly drawn) [Y-5, 13,14-dihydro-15-keto-16R,S-fluoro-20-methyl-PGF2α methyl ester]
activation at 3 µM ([1]; Table 2, Dose 3x10⁻⁶ M): 42%

O=C(O)CCC/C=C\C[C@@H]1[C@@H](CCC(=O)COc2cccc(C(F)(F)F)c2)[C@H](O)C[C@@H]1O [Y-12, 13,14-dihydro-15-keto-16-desbutyl-16-m-trifluoromethylphenoxy-PGF2α]
activation at 0.1 µM ([1]; Table 2, Dose 1x10⁻⁷ M): 52%

CCCCCC(F)C(=O)CC[C@H]1[C@H](O)CC(=O)[C@@H]1C/C=C\CCCC(=O)OC (stereo partly shown) [X-10]
activation at 10 µM ([1]; Table 1, Dose 1x10^-5 M): 80%

CCCCCCC(F)C(=O)CC[C@@H]1[C@@H](C/C=C\CCCC(=O)O)[C@@H](O)C[C@H]1O (stereo partly drawn) [Y-6, 13,14-dihydro-15-keto-20-ethyl-16R,S-fluoro-PGF2α]
activation at 0.3 µM ([1]; Table 2): 92%

CCCCC(F)C(=O)CC[C@H]1[C@H](O)CC(=O)[C@@H]1C/C=C\CCCC(=O)OC (stereo partly shown) [X-5, 13,14-dihydro-15-keto-16R,S-fluoro-PGE2 methyl ester]
activation at 3 µM ([1]; Table 1, Dose 3x10^-6 M): 64%

CCCCC(F)C(=O)CC[C@@H]1[C@@H](C/C=C\CCCC(=O)OCC)[C@@H](O)C[C@H]1C (stereo partly drawn) [Y-4, 13,14-dihydro-15-keto-16R,S-fluoro-11-dehydroxy-11R-methyl-PGF2α ethyl ester]
activation at 100 µM ([1]; Table 2, Dose 1x10⁻⁴ M): 50%

CCCCC(F)C(=O)CC[C@H]1[C@H](C)CC(=O)[C@@H]1CC(=O)CCCCC(=O)OCC (stereo partly drawn) [X-2, 13,14-dihydro-6,15-diketo-16R,S-fluoro-11-dehydroxy-11R-methyl-PGE1 ethyl ester]
activation at 10 µM ([1]; Table 1, Dose 1x10^-5 M): 82%

CCCCC(F)C(=O)CC[C@H]1[C@H](O)CC(=O)[C@@H]1C/C=C\CCCC(=O)O (stereo partly shown) [X-4, 13,14-dihydro-15-keto-16R,S-fluoro-PGE2]
activation at 1 µM ([1]; Table 1): 87%

CCCCC(F)C(=O)/C=C/[C@H]1[C@H](O)CC(=O)[C@@H]1C/C=C\CCCC(=O)O (stereo partly shown) [X-11]
activation at 1 µM ([1]; Table 1): 80%

CCCCC(F)C(=O)CC[C@H]1[C@H](C)CC(=O)[C@@H]1C/C=C\CCCC(=O)OCC (stereo partly drawn) [X-7, 13,14-dihydro-15-keto-16R,S-fluoro-11-dehydroxy-11R-methyl-PGE2 ethyl ester]
activation at 100 µM ([1]; Table 1, Dose 1x10^-4 M): 50%

CCCCC(F)C(=O)CC[C@H]1[C@H](O)CC(=O)[C@@H]1CCCCCCC(=O)O (stereo partly shown) [X-12]
activation at 1 µM ([1]; Table 1): 34%

COCCCCC(C)(C)C(=O)CC[C@H]1[C@H](O)CC(=O)[C@@H]1C/C=C\CCCC(=O)OC [X-8]
activation at 10 µM ([1]; Table 1, Dose 1x10^-5 M): 64%

O=C(O)CCC/C=C\C[C@H]1C(=O)C[C@@H](O)[C@@H]1CCC(=O)COc1cccc(C(F)(F)F)c1 [X-15]
activation at 1 µM ([1]; Table 1): 32%

CCCCC(F)C(=O)CC[C@H]1[C@H](O)CC(=O)[C@@H]1CC(=O)CCCCC(=O)OCC (stereo partly shown) [X-1, 13,14-dihydro-6,15-diketo-16R,S-fluoro-PGE1 ethyl ester]
activation at 100 µM ([1]; Table 1, Dose 1x10^-4 M): 86%

COC(=O)CCC/C=C\C[C@@H]1[C@@H](CCC(=O)COc2cccc(C(F)(F)F)c2)[C@H](O)C[C@@H]1O [Y-10, 13,14-dihydro-15-keto-16-desbutyl-16-m-trifluoromethylphenoxy-PGF2α methyl ester]
activation at 0.3 µM ([1]; Table 2): 92%

COCCCCCC(=O)CC[C@@H]1[C@@H](C/C=C\CCCC(=O)OC)[C@@H](O)C[C@H]1O [Y-9, 13,14-dihydro-15-keto-20-methoxy-PGF2α methyl ester]
activation at 100 µM ([1]; Table 2, Dose 1x10⁻⁴ M): 50%

CCCCCC(=O)CC[C@@H]1[C@@H](C/C=C\CCCC(=O)OC)[C@@H](O)C[C@H]1O [13,14-dihydro-15-keto-PGF2α methyl ester]
intestinal contraction [2]: without intestinal contraction

CCCCC(F)C(=O)CC[C@H]1[C@H](O)CC(=O)[C@@H]1C/C=C\CCCC(=O)OCC (stereo partly shown) [X-6, 13,14-dihydro-15-keto-16R,S-fluoro-PGE2 ethyl ester]
activation at 10 µM ([1]; Table 1, Dose 1x10^-5 M): 89%

CCCCC(F)C(=O)CC[C@@H]1[C@@H](C/C=C\CCCC(=O)OC)[C@@H](O)C[C@H]1O (stereo partly drawn) [Y-2, 13,14-dihydro-15-keto-16R,S-fluoro-PGF2α methyl ester]
activation at 3 µM ([1]; Table 2, Dose 3x10⁻⁶ M): 70%

CCCCC(F)(F)C(=O)CC[C@H]1[C@H](O)CC(=O)[C@@H]1C/C=C\CCCC(=O)O [X-14]
activation at 1 µM ([1]; Table 1): 81%
